Measurements published in patent publication EP0118120A2, “1,4-Dihydropyridine compound” (priority 1983, dated 1984).

Tests used:
SLC-Wistar male rats = test: Acute toxicity, oral LD50 in rats (Example 29); type: in vivo; settings: male rats 5 weeks old, 100 to 125 g, observed for one week, 10080 min
Text: (§1) Acute toxicity of the compounds according to the present invention

[1] = test system: liver disorder induced by carbon tetrachloride; test: Effect on liver disorder induced by carbon tetrachloride in rats, serum GOT, GPT, AlP, bilirubin (Example 26); type: in vivo, SLC-Wistar male rats; settings: rats 9 weeks old
Protocol: (§2) Effect of the compounds according to the present invention on liver disorder induced by carbon tetrachloride
(§3) The effects of the sample compounds to be tested on hepatic disorder were evaluated by determining the levels of GOT, GPT, AlP, and bilirubin, which are known as an indicator of hepatic disorder, in serum, after administering carbon tetrachloride and the sample compounds to SLC-Wistar male rats (9 weeks old and body weight of 210 to 250 g in Tables 1, 3, and 4, and 10 weeks old and body weight of 230 to 260 g in Table 2) as follows.
(§4) Five rats were used in each test group. The sample compound (i.e., each compound listed below) was suspended at a concentration of 40 mg/ml in a 0.1% aqueous solution of Tween-80 (i.e., nonionic surfactant available from Atlas Powder Co., Ltd.). The resultant suspension was orally administered at a dose of 200 mg/kg each at 25 hours and 1 hour before the administration of carbon tetrachloride, except for the control group. For the control group to which only carbon tetrachloride was administered in the evaluation test, a 0.1% aqueous Tween-80 was orally administered at a dose of 5 ml/kg in the same manner.
(§5) Carbon tetrachloride was intraperiotoneally administered as a 10% olive oil solution at a dose of 5 ml/kg (0.5 ml/kg in terms of CC14) one hour after the final administration of the sample compound. For the control (normal) group, olive oil was intraperitoneally administered in the same manner at a dose of 5 ml/kg.
(§6) Blood samples were collected from the carotid artery under pentobarbital anesthesia, 24 hours after the administration of carbon tetrachloride. The rats were fasted for 18 to 22 hours before collecting the blood samples.
(§7) The determination of GOT and GPT in serum was carried out according to a UV method, the determination of AlP was carried cut according to Bessy-Lowry method, and the determination of bilirubin was carried out according to a diazo method.

[2] = Acute toxicity, oral LD50 in rats (Example 29); type: in vivo; settings: rat, in vivo, male rats 5 weeks old, 100 to 125 g, observed for one week
Text: as §1

[3] = Acute toxicity, oral LD50 in rats (Example 28); settings: rat, in vivo, male rats 5 weeks old, 130 to 150 g, observed for one week
Text: as §1

[4] = test system: liver disorder induced by carbon tetrachloride; test: Effect on liver disorder induced by carbon tetrachloride in rats, repeat with 8 weeks old rats (Example 27); type: in vivo, SLC-Wistar male rats; settings: Table 5, serum 24 hours after CCl4, 200 mg/kg orally x2, rats 8 weeks old; for GOT: 170 to 210 g, CCl4 only 27875 ± 3628, normal 78 ± 3; for Bilirubin: CCl4 only 0.55 ± 0.16, normal 0.10 ± 0.00; for AlP: CCl4 only 41.3 ± 2.5, normal 25.7 ± 0.4; for GPT: CCl4 only 12984 ± 1465, normal 30 ± 3
Protocol: as §3, §4, §5, §6, §7, §2
The evaluation tests of Example 26 were repeated except that SLC-Wistar male rats (8 weeks old and body weight of 170 to 210 g) were used.

[5] = Table 3, serum 24 hours after CCl4, 200 mg/kg orally x2, CCl4 only 0.38 ± 0.06, normal 0.22 ± 0.04
[6] = Table 3, serum 24 hours after CCl4, 200 mg/kg orally x2, CCl4 only 34.4 ± 2.6, normal 27.0 ± 0.5
[7] = Table 3, serum 24 hours after CCl4, 200 mg/kg orally x2, CCl4 only 9188 ± 1815, normal 30 ± 2
[8] = Table 3, serum 24 hours after CCl4, 200 mg/kg orally x2, CCl4 only 13189 ± 2205, normal 81 ± 3
[9] = Table 4, serum 24 hours after CCl4, 200 mg/kg orally x2, CCl4 only 0.38 ± 0.04, normal 0.10 ± 0.00
[10] = Table 4, serum 24 hours after CCl4, 200 mg/kg orally x2, CCl4 only 35.0 ± 2.0, normal 24.4 ± 0.7
[11] = Table 4, serum 24 hours after CCl4, 200 mg/kg orally x2, CCl4 only 10523 ± 2313, normal 31 ± 3
[12] = Table 4, serum 24 hours after CCl4, 200 mg/kg orally x2, CCl4 only 17704 ± 4140, normal 76 ± 4

3,5-dicyano-4-[2-(5,6-dihydro-p--dioxinyl)]-2,6-dimethyl-1,4-dihvdropyridine [Sample Compound A]
LD50 (SLC-Wistar male rats): more than 1000 mg/kg
GOT ([1]; Table 1, serum 24 hours after CCl4 0.5 ml/kg i.p., compound 200 mg/kg orally 25 hours and 1 hour before CCl4, CCl4 only 17327 ± 2336, normal 76 ± 1): 3874 ± 792 K.U.
Bilirubin ([1]; Table 1, serum 24 hours after CCl4, 200 mg/kg orally x2, CCl4 only 0.62 ± 0.30, normal 0.10 ± 0.00): 0.24 ± 0.02 mg/dL
AlP ([1]; Table 1, serum 24 hours after CCl4, 200 mg/kg orally x2, CCl4 only 35.5 ± 2.5, normal 23.6 ± 0.4): 31.4 ± 0.9 K-AU.
GPT ([1]; Table 1, serum 24 hours after CCl4, 200 mg/kg orally x2, CCl4 only 10496 ± 1221, normal 31 ± 2): 2380 ± 472 K.U.

COCOC(=O)C1=C(C)NC(C)=C(C(=O)OCOC)C1C1=COCCO1 [Sample Compound F, bis(methoxymethyl) 4-[2-(5,6-dihydro-p-dioxinyl)]-2,6-dimethyl-1,4-dihydrcpyridine-3,5-dicarboxylate]
LD50 at 168 h [2]: > 2000 mg/kg
Bilirubin [1, 5]: 0.22 ± 0.05 mg/dL
AlP [1, 6]: 26.4 ± 1.0 K-AU.
GPT [1, 7]: 274 ± 99 K.U.
GOT [1, 8]: 432 ± 107 K.U.

COCCOC(=O)C1=C(C)NC(C)=C(C(=O)OCCOC)C1C1=COCCO1 [Sample Compound J, bis (2-methoxyethyl) 4-[2-(5,6-dihydro-p-dioxinyl)]-2,6-dimethyl-1,4-dihydropyridine-3,5-dicarboxylate]
LD50 at 168 h [3]: > 1000 mg/kg
Bilirubin [1, 9]: 0.18 ± 0.03 mg/dL
AlP [1, 10]: 27.4 ± 2.6 K-AU.
GPT [1, 11]: 626 ± 179 K.U.
GOT [1, 12]: 807 ± 211 K.U.

CC(=O)C1=C(C)NC(C)=C(C(C)=O)C1C1=COCCO1 [Sample Compound L, 3,5-diacetyl-4-[2-(5,6-dihydro-p-dioxinyl)]-2,6-dimethyl-1,4-dihydropyridine]
LD50 at 168 h [3]: > 1000 mg/kg
Bilirubin [1, 9]: 0.22 ± 0.02 mg/dL
AlP [1, 10]: 34.2 ± 1.5 K-AU.
GPT [1, 11]: 285 ± 96 K.U.
GOT [1, 12]: 429 ± 113 K.U.

CC(=O)C1=C(C)NC(C)=C(C(C)=O)C1C1=C(C)OC(C)CO1 (centres unmarked) [Sample Compound O, 3,5-diacetyl-2,6-dimethyl-4-2-(3,5-dimethyl-5,6-dihydro-p-dioxinyl) -1,4-dihydro pyridine]
LD50 at 168 h [2]: > 2000 mg/kg
Bilirubin [1, 5]: 0.26 ± 0.02 mg/dL
AlP [1, 6]: 37.2 ± 1.6 K-AU.
GPT [1, 7]: 410 ± 64 K.U.
GOT [1, 8]: 565 ± 98 K.U.

COCN1C(C)=C(C(C)=O)C(C2=COCCO2)C(C(C)=O)=C1C [Sample Compound R, 3,5-diacetyl-4-[2-(5,6-dihydro-p-dioxinyl)]-1-methoxymethyl-2,6-dimethyl-1,4-dihydropyridine]
LD50 at 168 h [2]: > 1500 mg/kg
GOT [4]: 425 ± 124 K.U.
Bilirubin [4]: 0.16 ± 0.02 mg/dL
AlP [4]: 31.4 ± 1.6 K-AU.
GPT [4]: 260 ± 98 K.U.

COCC1=C(C2C(C(C)=O)=C(C)NC(C)=C2C(C)=O)OCCO1 [Sample Compound V, 3,5-diacetyl-4-2-(3-methoxy-methvl-5,6-dihydro-p-dioxinyl) -2,6-dimethyl-l,4-dihydropyridine]
LD50 at 168 h [2]: > 2000 mg/kg
GOT [4]: 2036 ± 677 K.U.
Bilirubin [4]: 0.15 ± 0.03 mg/dL
AlP [4]: 35.6 ± 1.4 K-AU.
GPT [4]: 1251 ± 414 K.U.
